Patent US20230265151A1, “GIP/GLP1 CO-AGONIST COMPOUNDS” (priority 2020, published 2023)
Where two headings read alike, the source gives them in different places.

Legend:
Assay type in all cases: cell-based
[1] = biological target: hGLP-1R (Homo sapiens, UniProt P43220); test: Functional cAMP formation (HTRF) in HEK-293 clonal cells expressing hGLP-1R, 0.1% bovine casein, without or with 1.0% human serum albumin; set-up: expressed in transfected cells; details: for Emax: percent of maximal response to GLP-1(7-36)NH2; for EC50: geometric mean
Procedure, shortened: (§1)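 Readings of the HTRF 665/620 nm ratio, which falls as cAMP rises, were converted to nM cAMP using a standard curve after 30 min peptide exposure at 37° C.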

[2] = biological target: T1, hGIPR (Homo sapiens, UniProt P48546); test: Functional cAMP formation (HTRF) in HEK-293 clonal cells expressing hGIPR, 0.1% bovine casein, without or with 1.0% human serum albumin; details: for EC50: geometric mean
T1 construct: expressed in transfected cells
T1 sequence (P48546 22-466): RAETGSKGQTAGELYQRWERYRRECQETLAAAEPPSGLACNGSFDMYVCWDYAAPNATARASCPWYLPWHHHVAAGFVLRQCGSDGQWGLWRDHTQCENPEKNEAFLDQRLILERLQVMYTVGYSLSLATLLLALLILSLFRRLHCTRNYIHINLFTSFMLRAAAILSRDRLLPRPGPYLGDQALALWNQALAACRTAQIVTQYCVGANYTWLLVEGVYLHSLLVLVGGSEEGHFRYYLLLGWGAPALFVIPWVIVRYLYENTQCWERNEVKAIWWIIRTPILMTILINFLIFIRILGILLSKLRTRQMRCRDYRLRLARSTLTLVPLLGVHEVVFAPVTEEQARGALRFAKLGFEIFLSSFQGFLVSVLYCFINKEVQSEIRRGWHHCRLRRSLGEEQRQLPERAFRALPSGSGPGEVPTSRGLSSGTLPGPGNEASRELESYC
Procedure, shortened: as §1

[3] = biological target: T2, hGCGR (Homo sapiens, UniProt P47871); test: Functional cAMP formation (HTRF) in HEK-293 clonal cells expressing hGCGR, 0.1% bovine casein, without or with 1.0% human serum albumin; details: geometric mean
T2 construct: expressed in transfected cells
Procedure, shortened: as §1

[4] = 0.1% bovine casein and 1.0% human serum albumin, 37° C., read-out: hGLP-1R EC50, nM (SEM, n)
[5] = cAMP, incubated at 37° C., 0.1% bovine casein (no human serum albumin), read-out: hGLP-1R EC50, nM (SEM, n)
[6] = 0.1% bovine casein and 1.0% human serum albumin, 37° C., read-out: hGIPR EC50, nM (SEM, n)
[7] = HEK293, 0.1% bovine casein and 1.0% human serum albumin, 37° C., percent of maximal response to GIP(1-42)NH2, read-out: hGIPR Emax, % ± SEM
[8] = HEK293, percent of maximal response to GIP(1-42)NH2, 37° C., 0.1% bovine casein, arithmetic mean, read-out: hGIPR Emax, % ± SEM
[9] = cAMP, incubated at 37° C., 0.1% bovine casein (no human serum albumin), read-out: hGIPR EC50, nM (SEM, n)
[10] = 0.1% bovine casein and 1.0% human serum albumin, 37° C., read-out: hGCGR EC50, nM (SEM, n)
[11] = cAMP, incubated at 37° C., 0.1% bovine casein (no human serum albumin), read-out: hGCGR EC50, nM (SEM, n)

Chain of hGLP-1R (P43220 24-463): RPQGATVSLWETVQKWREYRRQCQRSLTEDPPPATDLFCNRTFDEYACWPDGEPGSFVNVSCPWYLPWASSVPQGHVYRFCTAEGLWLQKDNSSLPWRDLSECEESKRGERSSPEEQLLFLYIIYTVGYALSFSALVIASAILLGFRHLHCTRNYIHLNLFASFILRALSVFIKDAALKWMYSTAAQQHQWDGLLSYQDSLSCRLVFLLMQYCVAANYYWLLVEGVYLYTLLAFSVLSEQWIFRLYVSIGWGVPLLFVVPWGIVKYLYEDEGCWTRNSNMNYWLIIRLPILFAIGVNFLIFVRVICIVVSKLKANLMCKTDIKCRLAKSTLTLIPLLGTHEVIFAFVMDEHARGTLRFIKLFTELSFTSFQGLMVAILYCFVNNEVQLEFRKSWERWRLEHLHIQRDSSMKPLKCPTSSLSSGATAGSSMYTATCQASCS
T2 sequence (P47871 26-477): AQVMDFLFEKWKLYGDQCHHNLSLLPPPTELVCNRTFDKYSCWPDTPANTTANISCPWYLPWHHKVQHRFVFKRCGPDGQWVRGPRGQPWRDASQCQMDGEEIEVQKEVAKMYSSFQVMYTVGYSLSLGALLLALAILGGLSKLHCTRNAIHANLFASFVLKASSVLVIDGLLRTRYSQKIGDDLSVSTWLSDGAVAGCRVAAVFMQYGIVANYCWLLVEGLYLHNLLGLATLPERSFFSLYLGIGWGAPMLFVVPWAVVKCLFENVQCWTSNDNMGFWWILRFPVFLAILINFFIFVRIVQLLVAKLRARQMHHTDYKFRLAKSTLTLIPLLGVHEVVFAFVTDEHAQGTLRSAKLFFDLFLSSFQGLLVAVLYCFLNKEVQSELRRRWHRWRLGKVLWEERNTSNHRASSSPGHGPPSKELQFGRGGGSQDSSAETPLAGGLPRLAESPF

| Structure (SMILES) | Emax ([1]; HEK293, read-out: hGLP-1R Emax, % ± SEM, 0.1% bovine casein and 1.0% human serum albumin, 37° C.) [%] | EC50 ([1]; hGLP-1R EC50, nM (SEM, n), 0.1% bovine casein and 1.0% human serum albumin, 37° C.) [nM] | EC50 ([1]; hGLP-1R EC50, nM (SEM, n), cAMP, incubated at 37° C., 0.1% bovine casein (no human serum albumin)) [nM] | Emax ([2]; HEK293, read-out: hGIPR Emax, % ± SEM, 0.1% bovine casein and 1.0% human serum albumin, 37° C., percent of maximal response to GIP(1-42)NH2) [%] | Emax ([2]; HEK293, read-out: hGIPR Emax, % ± SEM, percent of maximal response to GIP(1-42)NH2, 37° C., 0.1% bovine casein, arithmetic mean) [%] | EC50 ([2]; hGIPR EC50, nM (SEM, n), 0.1% bovine casein and 1.0% human serum albumin, 37° C.) [nM] | EC50 ([3]; hGCGR EC50, nM (SEM, n), 0.1% bovine casein and 1.0% human serum albumin, 37° C.) [nM] | EC50 ([3]; hGCGR EC50, nM (SEM, n), cAMP, incubated at 37° C., 0.1% bovine casein (no human serum albumin)) [nM] | EC50 [1, 4] [nM] | EC50 [1, 5] [nM] | EC50 [2, 6] [nM] | Emax [2, 7] [%] | Emax [2, 8] [%] | EC50 [2, 9] [nM] | EC50 [3, 10] [nM] | EC50 [3, 11] [nM] | Emax ([1]; HEK293, 0.1% bovine casein and 1.0% human serum albumin, 37° C., read-out: hGLP-1R Emax, % ± SEM) [%] |
| --- | --- | --- | --- | --- | --- | --- | --- | --- | --- | --- | --- | --- | --- | --- | --- | --- | --- |
| CC[C@H](C)[C@H](NC(=O)[C@H](CCCN)NC(=O)[C@H](CC(=O)O)NC(=O)[C@H](CC(C)C)NC(=O)[C@](C)(CC(C)C)NC(=O)[C@@H](NC(=O)[C@H](CO)NC(=O)[C@H](Cc1ccncc1)NC(=O)[C@H](CC(=O)O)NC(=O)[C@H](CO)NC(=O)[C@@H](NC(=O)[C@](C)(Cc1ccccc1F)NC(=O)[C@@H](NC(=O)CNC(=O)[C@H](CCC(=O)O)NC(=O)C(C)(C)NC(=O)[C@@H](N)Cc1ccc(O)cc1)[C@@H](C)O)[C@@H](C)O)[C@@H](C)CC)C(=O)N[C@@H](C)C(=O)N[C@@H](CCC(N)=O)C(=O)NC(C)(C)C(=O)N[C@@H](CCC(=O)O)C(=O)N[C@@H](Cc1ccccc1)C(=O)N[C@H](C(=O)N[C@@H](CCCCNC(=O)COCCOCCNC(=O)COCCOCCNC(=O)CC[C@H](NC(=O)CCCCCCCCCCCCC(=O)O)C(=O)O)C(=O)N[C@@](C)(Cc1ccc(O)cc1)C(=O)N[C@@H](CC(C)C)C(=O)N[C@H](C(=O)N[C@@H](CCC(=O)O)C(=O)NCC(=O)NCC(=O)N1CCC[C@H]1C(=O)N[C@@H](CO)C(=O)N[C@@H](CO)C(=O)NCC(=O)N[C@@H](C)C(=O)N1CCC[C@H]1C(=O)N1CCC[C@H]1C(=O)N1CCC[C@H]1C(=O)N[C@@H](CO)C(=O)N[C@@H](CCCCNC(=O)COCCOCCNC(=O)COCCOCCNC(=O)CC[C@H](NC(=O)CCCCCCCCCCCCC(=O)O)C(=O)O)C(N)=O)[C@@H](C)CC)[C@@H](C)CC [Example 72] | 98.8 | 40.1 | 0.245 | 95.9 | 96.5 ± 3.71 | 3.55 | > 9950 | > 9950 |  |  |  |  |  |  |  |  |  |
| CC[C@H](C)[C@H](NC(=O)[C@H](CCCN)NC(=O)[C@H](CC(=O)O)NC(=O)[C@H](CC(C)C)NC(=O)[C@](C)(CC(C)C)NC(=O)[C@@H](NC(=O)[C@H](CO)NC(=O)[C@H](Cc1ccncc1)NC(=O)[C@H](CC(=O)O)NC(=O)[C@H](CO)NC(=O)[C@@H](NC(=O)[C@](C)(Cc1ccccc1F)NC(=O)[C@@H](NC(=O)CNC(=O)[C@H](CCC(=O)O)NC(=O)C(C)(C)NC(=O)[C@@H](N)Cc1ccc(O)cc1)[C@@H](C)O)[C@@H](C)O)[C@@H](C)CC)C(=O)N[C@@H](C)C(=O)N[C@@H](CCC(N)=O)C(=O)NC(C)(C)C(=O)N[C@@H](CCCCNC(=O)COCCOCCNC(=O)COCCOCCNC(=O)CC[C@H](NC(=O)CCCCCCCCCCCCC(=O)O)C(=O)O)C(=O)N[C@@H](Cc1ccccc1)C(=O)N[C@H](C(=O)N[C@H](CCC(=O)O)C(=O)N[C@@](C)(Cc1ccc(O)cc1)C(=O)N[C@@H](CC(C)C)C(=O)N[C@H](C(=O)N[C@@H](CCC(=O)O)C(=O)NCC(=O)NCC(=O)N[C@@H](CCCCNC(=O)COCCOCCNC(=O)COCCOCCNC(=O)CC[C@H](NC(=O)CCCCCCCCCCCCC(=O)O)C(=O)O)C(=O)N[C@@H](CO)C(=O)N[C@@H](CO)C(=O)NCC(=O)N[C@@H](C)C(=O)N1CCC[C@H]1C(=O)N1CCC[C@H]1C(=O)N1CCC[C@H]1C(=O)N[C@@H](CO)C(N)=O)[C@@H](C)CC)[C@@H](C)CC [Example 74] |  |  |  |  |  |  |  |  | 59.5 | 0.334 | 2.19 | 86.7 | 93.3 ± 2.89 | 0.0156 | > 9950 | > 9950 |  |
| CC[C@H](C)[C@H](NC(=O)[C@H](CCCN)NC(=O)[C@H](CC(=O)O)NC(=O)[C@H](CC(C)C)NC(=O)[C@](C)(CC(C)C)NC(=O)[C@@H](NC(=O)[C@H](CO)NC(=O)[C@H](Cc1ccncc1)NC(=O)[C@H](CC(=O)O)NC(=O)[C@H](CO)NC(=O)[C@@H](NC(=O)[C@](C)(Cc1ccccc1F)NC(=O)[C@@H](NC(=O)CNC(=O)[C@H](CCC(=O)O)NC(=O)C(C)(C)NC(=O)[C@@H](N)Cc1ccc(O)cc1)[C@@H](C)O)[C@@H](C)O)[C@@H](C)CC)C(=O)N[C@@H](C)C(=O)N[C@@H](CCC(N)=O)C(=O)NC(C)(C)C(=O)N[C@@H](CCCCNC(=O)COCCOCCNC(=O)COCCOCCNC(=O)CC[C@H](NC(=O)CCCCCCCCCCCCC(=O)O)C(=O)O)C(=O)N[C@@H](Cc1ccccc1)C(=O)N[C@H](C(=O)N[C@H](CCC(=O)O)C(=O)N[C@@](C)(Cc1ccc(O)cc1)C(=O)N[C@@H](CC(C)C)C(=O)N[C@H](C(=O)N[C@@H](CCC(=O)O)C(=O)NCC(=O)NCC(=O)N1CCC[C@H]1C(=O)N[C@@H](CO)C(=O)N[C@@H](CO)C(=O)NCC(=O)N[C@@H](C)C(=O)N1CCC[C@H]1C(=O)N1CCC[C@H]1C(=O)N1CCC[C@H]1C(=O)N[C@@H](CO)C(=O)N[C@@H](CCCCNC(=O)COCCOCCNC(=O)COCCOCCNC(=O)CC[C@H](NC(=O)CCCCCCCCCCCCC(=O)O)C(=O)O)C(N)=O)[C@@H](C)CC)[C@@H](C)CC [Example 75] |  |  |  |  |  |  |  |  | 41.3 | 0.411 | 2.18 | 87.8 ± 3.33 | 92.3 ± 0.78 | 0.0182 | > 9950 | > 9950 | 97 ± 8.3 |
| CC[C@H](C)[C@H](NC(=O)[C@H](CC(C)C)NC(=O)[C@](C)(Cc1ccc(O)cc1)NC(=O)[C@@H](CCC(=O)O)NC(=O)[C@@H](NC(=O)[C@H](Cc1ccccc1)NC(=O)[C@H](CCCCNC(=O)COCCOCCNC(=O)CC[C@H](NC(=O)CCCCCCCCCCCCC(=O)O)C(=O)O)NC(=O)C(C)(C)NC(=O)[C@H](CCC(N)=O)NC(=O)[C@H](C)NC(=O)[C@H](CCCCNC(=O)COCCOCCNC(=O)CC[C@H](NC(=O)CCCCCCCCCCCCC(=O)O)C(=O)O)NC(=O)[C@H](CCCN)NC(=O)[C@H](CC(=O)O)NC(=O)[C@H](CC(C)C)NC(=O)[C@](C)(CC(C)C)NC(=O)[C@@H](NC(=O)[C@H](CO)NC(=O)[C@H](Cc1ccncc1)NC(=O)[C@H](CC(=O)O)NC(=O)[C@H](CO)NC(=O)[C@@H](NC(=O)[C@](C)(Cc1ccccc1F)NC(=O)[C@@H](NC(=O)CNC(=O)[C@H](CCC(=O)O)NC(=O)C(C)(C)NC(=O)[C@@H](N)Cc1ccc(O)cc1)[C@@H](C)O)[C@@H](C)O)[C@@H](C)CC)[C@@H](C)CC)C(=O)N[C@@H](CCC(=O)O)C(=O)NCC(=O)NCC(=O)N1CCC[C@H]1C(=O)N[C@@H](CO)C(=O)N[C@@H](CO)C(=O)NCC(=O)N[C@@H](C)C(=O)N1CCC[C@H]1C(=O)N1CCC[C@H]1C(=O)N1CCC[C@H]1C(=O)N[C@@H](CO)C(N)=O [Example 76] |  |  |  |  |  |  |  |  | 28.9 | 0.527 | 1.4 | 89.9 ± 2.11 |  | 0.0205 | > 9950 | > 9950 |  |
